Data set [1] deals with human colon cancer cell line HCT116 (WT). Description: In vivo efficacy assay, subcutaneous HCT116 WT xenograft. Also noted: species or system Balb/C nude female mouse. The note with it: 15 mg/kg PO/QD, 21 days, Balb/C nude mice. How it is done: The antitumor effect or MTAP/MTA selectivity of the compounds provided herein in the subcutaneously transplanted Balb/C nude female mouse model of human colon cancer cell line HCT116 (WT and MTAP KO) was tested.
Cell viability and cell count were determined. Cell count of the suspension was adjusted to 1×10^8 cells/mL and mixed with Matrigel in a 1:1 volume. Each mouse for this study were inoculated subcutaneously in the right front flank region with 5×10^6 tumor cells (0.1 mL) for tumor development.
The randomization started when the mean tumor size reaches approximately 100-150 mm^3. Mice inoculated with HCT116 WT cells were randomized on day 7. Mice inoculated with HCT116 MTAP KO cells were randomized on day 8. All animals were randomly allocated to 5 study groups, each group consisted of 8 animals. Randomization was performed based on randomized block design.
Tumor volume was measured twice per week in two dimensions using a caliper, and the volume was expressed in mm^3 using the formula: “V=(L×W×W)/2”, where V is tumor volume, L is tumor length (the longest tumor dimension) and W is tumor width (the longest tumor dimension perpendicular to L).

Data set [2] is described as follows: In vivo pharmacokinetics assay in mice via IV and PO. The note with it: for Mean Concentration In brain / Mean Concentration In plasma / B/P ratio: PO (Group 4 design: 30 mg/kg); for B/P ratio: brain to plasma, one value for 2 h and 4 h. More on the design: species or system ICR mice. How it is done: Pharmacokinetics assay for test compounds was performed in mice via IV and PO.
Test compound solution was prepared on the day of administration.
Solvent: IV+PO: 5% DMSO+10% Soultol+85% H2O or saline
Species: ICR mice; SPF level.
Source: Beijing Vital River Laboratory Animal Technology Co., Ltd.
Animal selection: Males. No random grouping
Weighed before dosing, calculated dosage according to body weight. For Groups 1-3, the drug was administered intravenously or intragastrically. For Group 4, the drug administered intragastrically.
For Groups 1-3, at 0.083 h, 0.25 h, 0.5 h, 1 h, 2 h, 4 h, 6 h, 8 h, 24 h, after administration. For Group 4, at 2 h and 4 h after administration.
Blood was collected through the cheeks. For each sample, about 0.05 mL of blood was collected and was added heparin sodium or EDTA-2K as anticoagulant, and was placed on wet ice.
The blood samples were collected and placed on ice and was centrifuged within 1 hour (centrifugation: 6000 g, 3 minutes, 2-8° C.) to separate plasma. Plasma samples were stored in a −80° C. refrigerator prior to analysis.
The pharmacokinetic parameters were calculated using Phoenix WinNonlin8.2.0 based on the blood concentration data at different time points, and AUC0-t, AUC0-∞, MRT0-∞, Cmax, Tmax, and T1/2 and mean values and standard deviations thereof were provided.

For data set [3] the following is noted: human, microsomes.
The conditions of data set [4]: dog, microsomes.
For the next data set, the target named is PRMT5/MEP50 (Homo sapiens (Human), UniProt O14744). Description: MTase-Glo methyl transferase assay (PRMT5 inhibition). The data set is classed as biochemical. As to conditions: 50 nM PRMT5/MEP50, 25 μM SAM, 5 μM Histone H4 peptide (1-21), read-out: IC50 for PRMT5 inhibiting. How it is done:
The PRMT5 inhibitory activity of test compounds was determined using the MTase-Glo™ assay (Promega), which monitors the product (S-adenosyl homocysteine or SAH) of methyltransferase reactions. The PRMT5 MTase-Glo assays were conducted in a 384-well white ProxiPlate (PerkinElmer, catalog no.: 6008280) in a total volume of 12 μL. The PRMT5 enzymatic reaction (in 4 μL) contained 50 nM PRMT5/MEP50 (Reaction Biology Corp, catalog no.: HMT-22-148), 25 μM S-adenosyl methionine (SAM, Promega), 5 μM Histone H4 peptide (1-21) (BPS Bioscience, catalog no.: 52018-2) and five-fold serially diluted compounds in a reaction buffer of 50 mM Tris (pH 8.0), 50 mM NaCl, 0.01% Tween 20, 0.01% BSA, and 1 mM DTT. The test compounds were pre-incubated with PRMT5/MEP50 and Histone H4 peptide for 20 minutes at room temperature before the addition of SAM to initiate the PRMT5 reaction. The reaction was allowed to proceed for 1 hour at 37° C. and was terminated by 2 μL of 3× MTase-Glo™ Reagent (Promega) and 150 μM EPZ015666 (Selleck, catalog no.: 1616391-65-1). After a 30-minute incubation at room temperature, 6 μL of MTase-Glo™ Detection Solution (Promega) was added and the plate was incubated at room temperature for an additional 30 minutes. The light signal corresponding to the amount of SAH produced by the PRMT5 reaction was subsequently measured using an Envision multimode reader (PerkinElmer). IC50 and Ki values were obtained by analyzing dose-response curves using GraphPad Prism.

The conditions of data set [5]: cynomolgus monkey, microsomes.
Data set [6] deals with cryopreserved hepatocytes. Description: Hepatic metabolic stability (HMS) assay, dog hepatocytes.
Data set [7] deals with cryopreserved hepatocytes. Description: Hepatic metabolic stability (HMS) assay, mouse hepatocytes.
Procedure: 1) 10 mM test compounds were provided.
2) 30 mM positive control stock solutions: Dissolved accurate amount of positive control compounds in dimethyl sulfoxide (DMSO).
3) 1000× Stock Solution: Diluted 10 mM test compounds and 30 mM positive control compounds to 1 mM and 3 mM with DMSO in 96-well plates.
4) 100× Dosing Solution: Diluted 1 mM test compounds and 3 mM positive control compounds to 100 μM and 300 μM dosing solutions with ACN.
5) Preparation of 0.5×10^6/mL cells suspension: cryopreserved cells were thawed, isolated and suspended in Incubation Medium, then diluted with pre-warmed Incubation Medium to 0.5×10^6 cells/mL.
6) Add 198 μL of pre-warmed cell suspensions in 96-well plates.
7) Preparation of Quenching Plate: Transfer 125 μL of stop solution in a set of pre-labeled 96-well plates.
8) Spike 2 μL dosing solution to each well of 96-well plates in duplicate.
9) For TO Samples, mix to achieve a homogenous suspension for about 1 min, then immediately transfer 25 μL of each sample into well containing 125 μL of ice-cold stop solution followed by mixing.
10) Incubate all plates at 37° C. in a 95% humidified incubator at 5% CO2 to start the reactions with constant shaking.
11) At 15, 30, 60 and 90 min, mix samples and then transfer 25 μL of each sample at each time point to well containing 125 μL of ice-cold stop solution followed by mixing.
12) Medium Control (MC) sample plates (labeled as TO-MC and T90-MC) are prepared in the same way as cell incubation except that medium was used instead of cell suspension.
13) At each corresponding time point, stop the reactions by removing the plates from incubator and mixing with 125 μL of ice-cold stop solution.
14) Vortex the plates immediately on a plate shaker at 600 rpm for 10 minutes. Then, centrifuge all sample plates at 3220×g for 20 min at 4° C.
15) After centrifugation, 80 μL/well of supernatant in the sample plates are transferred to another set of pre-labeled 96-well plates which containing 240 μL of ultra pure water according to the plate map.
16) Analytical plates are sealed and store at 4° C. until LC-MS/MS analysis.
The remaining percents of test articles after incubation were calculated by the follow equations:
Use the following equation of first order kinetics to calculate T1/2 and CLint:
Data set [8] can be described thus: Liver microsome metabolic stability (LMS) assay, mouse. (Liver microsomes are a subcellular fraction often used to study metabolism.)

Where two headings read alike, the source gives them in different places.

For orientation: Cmax means the peak of the concentration-time curve. As a reminder, the IC50 is the midpoint of a concentration-inhibition curve. Usually half-life stands for the time in which the quantity being followed falls by half. Read a high half-life as slow loss.

Sequence of PRMT5/MEP50 (O14744 whole entry): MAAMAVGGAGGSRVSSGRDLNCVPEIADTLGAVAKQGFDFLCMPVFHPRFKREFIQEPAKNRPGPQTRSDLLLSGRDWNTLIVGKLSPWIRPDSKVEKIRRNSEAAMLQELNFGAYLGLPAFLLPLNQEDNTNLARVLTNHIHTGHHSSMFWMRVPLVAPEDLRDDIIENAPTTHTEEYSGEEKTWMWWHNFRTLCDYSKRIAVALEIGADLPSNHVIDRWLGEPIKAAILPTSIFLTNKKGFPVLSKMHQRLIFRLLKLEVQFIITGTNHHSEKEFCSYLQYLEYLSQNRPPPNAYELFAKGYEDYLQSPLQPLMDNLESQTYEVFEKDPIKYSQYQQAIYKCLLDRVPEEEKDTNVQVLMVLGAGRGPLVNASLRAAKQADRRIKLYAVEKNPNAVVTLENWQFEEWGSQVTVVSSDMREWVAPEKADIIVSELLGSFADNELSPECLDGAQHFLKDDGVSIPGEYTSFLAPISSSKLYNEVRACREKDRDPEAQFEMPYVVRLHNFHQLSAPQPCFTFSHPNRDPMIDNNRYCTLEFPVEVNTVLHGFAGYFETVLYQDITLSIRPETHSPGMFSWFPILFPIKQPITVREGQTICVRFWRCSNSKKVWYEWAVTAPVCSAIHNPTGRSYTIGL
Sequence of PRMT5/MEP50 (Q9BQA1 whole entry partner): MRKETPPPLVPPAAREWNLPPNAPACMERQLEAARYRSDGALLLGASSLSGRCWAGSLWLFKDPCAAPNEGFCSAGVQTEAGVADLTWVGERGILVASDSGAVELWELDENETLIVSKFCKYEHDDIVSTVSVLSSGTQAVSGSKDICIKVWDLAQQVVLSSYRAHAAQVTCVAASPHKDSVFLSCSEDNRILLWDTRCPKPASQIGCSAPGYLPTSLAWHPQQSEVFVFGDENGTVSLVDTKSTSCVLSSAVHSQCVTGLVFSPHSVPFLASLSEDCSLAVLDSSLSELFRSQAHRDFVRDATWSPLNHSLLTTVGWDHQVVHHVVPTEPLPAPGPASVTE

For the compound `CN(C(=O)c1ccc2nc(N)c3cncn3c2c1)C1COc2cc(C(F)(F)F)ccc21` (centres unmarked) [Compound 17], in [1], the “Tumor growth inhibition (TGI) HCT 116 WT” value stood at 66%. For the same compound, in data set [2] (IV 1.0 mg/kg), the AUC0-t came out at 5219 ng·h/mL, the Cl is 3.10 mL/min/kg and the T1/2 is 5.05 h. Moreover, the Cmax in [2] (IV 1.0 mg/kg, plasma) came out at 965 ng/mL. For the same compound, in [2] (PO 10 mg/kg), the AUC0-t was determined as 50800 ng·h/mL and the T1/2 is on record as 5.07 h. In data set [2] (PO 10 mg/kg, plasma), this compound yielded a C8 h of 2287 ng/mL, a C24 h of 257 ng/mL and a maximum concentration (Cmax) of 4627 ng/mL. In data set [2] (PO 30 mg/kg), this compound showed an AUC0-t of 174589 ng·h/mL and a T1/2 of 4.87 h. In data set [2] (PO 30 mg/kg, plasma), the C8 h is 8260 ng/mL, the C24 h is 860 ng/mL and the peak concentration (Cmax) is 16233 ng/mL. In addition, in [2] (2 h), the “Mean Concentration In brain” value is 3308 ± 1056 ng/g and the “Mean Concentration In plasma” value is on record as 14843 ± 4945 ng/mL. For the same compound, in data set [2] (4 h), the “Mean Concentration In brain” value was 2668 ± 224 ng/g and the “Mean Concentration In plasma” value stood at 13667 ± 1365 ng/mL. The B/P ratio in data set [2] is listed as 21%. In addition, in data set [3], the “T1/2 of LMS, H” value was >2.42 h. For the same compound, the “T1/2 of LMS, D” value in [4] is >2.42 h. In addition, on PRMT5/MEP50, the half-maximal inhibitory concentration (IC50) was found to be 0.012 µM. The “T1/2 of LMS, C” value in [5] turned out to be 1.07 h. Besides, the “T1/2 of LMS, R” value (rat, microsomes) is >2.42 h.

Regarding `CN(C(=O)c1cc2c(cn1)nc(N)c1cncn12)C1CC(F)(F)c2cc(C(F)(F)F)ccc21` (centres unmarked) [Compound 24], the “Tumor growth inhibition (TGI) HCT 116 WT” value in data set [1] was 62%. The compound also yielded a Cl in data set [2] (IV 1.0 mg/kg) of 2.41 mL/min/kg. Further, in data set [2] (PO 10 mg/kg), the AUC0-t is 44942 ng·h/mL and the T1/2 worked out at 4.41 h. In [2] (PO 10 mg/kg, plasma), this compound gave a C8 h of 2598 ng/mL, a C24 h of 186 ng/mL and a maximum concentration (Cmax) of 3355 ng/mL. In data set [2] (PO 50 mg/kg), this compound displayed an AUC0-t of 130284 ng·h/mL and a T1/2 of 3.23 h. In data set [2] (PO 50 mg/kg, plasma), this compound had a C8 h of 4983 ng/mL, a C24 h of 178 ng/mL and a Cmax of 15733 ng/mL. Moreover, in [2] (2 h), the “Mean Concentration In brain” value came out at 3132 ± 1647 ng/g and the “Mean Concentration In plasma” value is given as 6327 ± 2604 ng/mL. In addition, in data set [2] (4 h), the “Mean Concentration In brain” value stood at 3084 ± 145 ng/g and the “Mean Concentration In plasma” value was determined as 5983 ± 361 ng/mL. Moreover, in data set [2], the B/P ratio is on record as 51%. Further, at PRMT5/MEP50, the 50% inhibitory concentration (IC50) came to 0.014 µM. Moreover, the “CLint (mic) R” value (rat liver microsome) was <9.6 µL/min/mg. For the same compound, the “T1/2 of LMS, R” value (rat liver microsome 0.5 mg protein/mL, 1 μM, NADPH) was >2.42 h. Also, the “CLint (liver) R” value (rat liver microsome, scaled to liver) was <17.3 mL/min/kg. Also, in [6] (dog hepatocytes, 1 μM test compound (3 μM positive control)), the “T1/2 (hepatocytes) D” value was found to be 3.577 h. Further, the “CLint (liver) D” value in [6] (dog hepatocytes, scaled to liver) was 44.4 mL/min/kg. Further, the “CLint (hep) D” value in [6] (dog, hepatocytes) is on record as 6.5 μL/min/10^6. In data set [7] (mouse hepatocytes, 1 μM test compound (3 μM positive control)), the “T1/2 (hepatocytes) M” value came out at 1.27 h. The “CLint (liver) M” value in data set [7] (mouse hepatocytes, scaled to liver) is listed as 216.4 mL/min/kg. Further, the “CLint (hep) M” value in data set [7] (mouse, hepatocytes) came to 18.2 μL/min/10^6. The “T1/2 of LMS, M” value in data set [8] (mouse liver microsome 0.5 mg protein/mL, 1 μM, NADPH) is >2.42 h.

In the case of `CN(C(=O)c1ccc2nc(N)c3cncn3c2c1)[C@@H]1COc2cc(C(F)(F)F)ccc21` [Compound 12], the clearance in data set [2] (male, ICR, mouse, plasma, IV 1.0 mg/kg) worked out at 3.48 mL/min/kg. Besides, on PRMT5/MEP50, the IC50 is 0.026 µM. This compound returned a half-life at 1 μM in data set [8] (mouse, liver microsomes) of 1.14 h.

These data come from patent US20240262835A1, “PRMT5 INHIBITING COMPOUNDS AND USES THEREOF” (ANTENGENE DISCOVERY LIMITED, priority 2023, published 2024).
